Assay results reported in PubChem BioAssay AID1963829 (Molecular Pharmacology Branch, DTP, NCI, 2024).

Tested on: 935938-334-R-J1-PDC complex spheroid viability
Assay: Anticancer human tumor 935938-334-R-J1-PDC patient-derived small intestine adenocarcinoma cell line growth inhibition [POLQ]
Settings: for IC50: curve of first compound; for viability, T/C: stronger effect = lower value
Summary of the method: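 Three-cell-type spheroids modelling solid tumor plus stroma served as the readout system; POL inhibitors were tested individually and in combination, concentration ranges set by clinical Cmax where known.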

[1] = second compound 0.0316 µM, first compound 0.0316 µM
[2] = second compound 0.0316 µM, first compound 0.1 µM
[3] = second compound 0.0316 µM, first compound 0.316 µM
[4] = second compound 0.0316 µM, first compound 1 µM
[5] = second compound 0.0316 µM, first compound 3.16 µM
[6] = second compound 0.0316 µM, first compound 10 µM
[7] = second compound 0.1 µM, first compound 0.0316 µM
[8] = second compound 0.1 µM, first compound 0.1 µM
[9] = second compound 0.1 µM, first compound 0.316 µM
[10] = second compound 0.1 µM, first compound 1 µM
[11] = second compound 0.1 µM, first compound 3.16 µM
[12] = second compound 0.1 µM, first compound 10 µM
[13] = second compound 0.316 µM, first compound 0.0316 µM
[14] = second compound 0.316 µM, first compound 0.1 µM
[15] = second compound 0.316 µM, first compound 0.316 µM
[16] = second compound 0.316 µM, first compound 1 µM
[17] = second compound 0.316 µM, first compound 3.16 µM
[18] = second compound 0.316 µM, first compound 10 µM
[19] = second compound 1 µM, first compound 0.0316 µM
[20] = second compound 1 µM, first compound 0.1 µM
[21] = second compound 1 µM, first compound 0.316 µM
[22] = second compound 1 µM, first compound 1 µM
[23] = second compound 1 µM, first compound 3.16 µM
[24] = second compound 1 µM, first compound 10 µM
[25] = second compound 3.16 µM, first compound 0.0316 µM
[26] = second compound 3.16 µM, first compound 0.1 µM
[27] = second compound 3.16 µM, first compound 0.316 µM
[28] = second compound 3.16 µM, first compound 1 µM
[29] = second compound 3.16 µM, first compound 3.16 µM
[30] = second compound 3.16 µM, first compound 10 µM
[31] = second compound 10 µM, first compound 0.0316 µM
[32] = second compound 10 µM, first compound 0.1 µM
[33] = second compound 10 µM, first compound 0.316 µM
[34] = second compound 10 µM, first compound 1 µM
[35] = second compound 10 µM, first compound 3.16 µM
[36] = second compound 10 µM, first compound 10 µM
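Also: spheroids exposed to drugs for seven days before viability read.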
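For viability, T/C in this document: 100% = DMSO vehicle control wells.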

## CNCc1ccc(-c2[nH]c3cc(F)cc4c3c2CCNC4=O)cc1 + COC1C(OC(N)=O)C(O)C(Oc2ccc3c(O)c(NC(=O)c4ccc(O)c(CC=C(C)C)c4)c(=O)oc3c2C)OC1(C)C
Second compound 0.0316 µM
  IC50: > 10 µM
Second compound 0.1 µM
  IC50: > 10 µM
Second compound 0.316 µM
  IC50: > 10 µM
Second compound 1 µM
  IC50: > 10 µM
Second compound 3.16 µM
  IC50: > 10 µM
Second compound 10 µM
  IC50: > 10 µM
[1]
  viability, T/C: 124%
[2]
  viability, T/C: 97.1%
[3]
  viability, T/C: 87.9%
[4]
  viability, T/C: 87.4%
[5]
  viability, T/C: 75.4%
[6]
  viability, T/C: 83.4%
[7]
  viability, T/C: 79.9%
[8]
  viability, T/C: 111%
[9]
  viability, T/C: 94.9%
[10]
  viability, T/C: 87.6%
[11]
  viability, T/C: 98.5%
[12]
  viability, T/C: 96.7%
[13]
  viability, T/C: 115%
[14]
  viability, T/C: 108%
[15]
  viability, T/C: 94.9%
[16]
  viability, T/C: 92.3%
[17]
  viability, T/C: 84%
[18]
  viability, T/C: 87.8%
[19]
  viability, T/C: 92.6%
[20]
  viability, T/C: 105%
[21]
  viability, T/C: 113%
[22]
  viability, T/C: 105%
[23]
  viability, T/C: 98.8%
[24]
  viability, T/C: 92.9%
[25]
  viability, T/C: 87.5%
[26]
  viability, T/C: 100%
[27]
  viability, T/C: 70.7%
[28]
  viability, T/C: 75.2%
[29]
  viability, T/C: 94%
[30]
  viability, T/C: 99.2%
[31]
  viability, T/C: 95.7%
[32]
  viability, T/C: 113%
[33]
  viability, T/C: 82.9%
[34]
  viability, T/C: 94.4%
[35]
  viability, T/C: 117%
[36]
  viability, T/C: 88.7%

## Nc1ccn(C2OC(CO)C(O)C2(F)F)c(=O)n1 (stereo unspecified) + COC1C(OC(N)=O)C(O)C(Oc2ccc3c(O)c(NC(=O)c4ccc(O)c(CC=C(C)C)c4)c(=O)oc3c2C)OC1(C)C
Second compound 0.0316 µM
  IC50: < 0.0316 µM
Second compound 0.1 µM
  IC50: < 0.0316 µM
Second compound 0.316 µM
  IC50: < 0.0316 µM
Second compound 1 µM
  IC50: < 0.0316 µM
Second compound 3.16 µM
  IC50: < 0.0316 µM
Second compound 10 µM
  IC50: < 0.0316 µM
[1]
  viability, T/C: 25.5%
[2]
  viability, T/C: 22.1%
[3]
  viability, T/C: 18.8%
[4]
  viability, T/C: 15%
[5]
  viability, T/C: 14.9%
[6]
  viability, T/C: 14.1%
[7]
  viability, T/C: 30.7%
[8]
  viability, T/C: 18.8%
[9]
  viability, T/C: 17.8%
[10]
  viability, T/C: 16.9%
[11]
  viability, T/C: 16.9%
[12]
  viability, T/C: 14.5%
[13]
  viability, T/C: 32.2%
[14]
  viability, T/C: 22.6%
[15]
  viability, T/C: 17.7%
[16]
  viability, T/C: 17.7%
[17]
  viability, T/C: 16.3%
[18]
  viability, T/C: 14.6%
[19]
  viability, T/C: 28.5%
[20]
  viability, T/C: 23.4%
[21]
  viability, T/C: 20.2%
[22]
  viability, T/C: 13.6%
[23]
  viability, T/C: 18.1%
[24]
  viability, T/C: 16.5%
[25]
  viability, T/C: 26.1%
[26]
  viability, T/C: 25.7%
[27]
  viability, T/C: 21.7%
[28]
  viability, T/C: 16.4%
[29]
  viability, T/C: 16.7%
[30]
  viability, T/C: 14.9%
[31]
  viability, T/C: 28.8%
[32]
  viability, T/C: 23.6%
[33]
  viability, T/C: 18.6%
[34]
  viability, T/C: 14.4%
[35]
  viability, T/C: 16.8%
[36]
  viability, T/C: 17.9%

## O=C(c1cc(Cc2n[nH]c(=O)c3ccccc23)ccc1F)N1CCN(C(=O)C2CC2)CC1 + COC1C(OC(N)=O)C(O)C(Oc2ccc3c(O)c(NC(=O)c4ccc(O)c(CC=C(C)C)c4)c(=O)oc3c2C)OC1(C)C
Second compound 0.0316 µM
  IC50: > 10 µM
Second compound 0.1 µM
  IC50: > 10 µM
Second compound 0.316 µM
  IC50: > 10 µM
Second compound 1 µM
  IC50: > 10 µM
Second compound 3.16 µM
  IC50: > 10 µM
Second compound 10 µM
  IC50: > 10 µM
[1]
  viability, T/C: 83.4%
[2]
  viability, T/C: 89.7%
[3]
  viability, T/C: 87.5%
[4]
  viability, T/C: 110%
[5]
  viability, T/C: 79.9%
[6]
  viability, T/C: 64.6%
[7]
  viability, T/C: 101%
[8]
  viability, T/C: 99.1%
[9]
  viability, T/C: 95.9%
[10]
  viability, T/C: 90.8%
[11]
  viability, T/C: 80.8%
[12]
  viability, T/C: 58%
[13]
  viability, T/C: 78.4%
[14]
  viability, T/C: 98.6%
[15]
  viability, T/C: 90.3%
[16]
  viability, T/C: 77.4%
[17]
  viability, T/C: 88.7%
[18]
  viability, T/C: 85.2%
[19]
  viability, T/C: 76.7%
[20]
  viability, T/C: 84.6%
[21]
  viability, T/C: 102%
[22]
  viability, T/C: 87.5%
[23]
  viability, T/C: 94.5%
[24]
  viability, T/C: 79.4%
[25]
  viability, T/C: 119%
[26]
  viability, T/C: 85%
[27]
  viability, T/C: 107%
[28]
  viability, T/C: 75.9%
[29]
  viability, T/C: 64.6%
[30]
  viability, T/C: 84%
[31]
  viability, T/C: 94.9%
[32]
  viability, T/C: 102%
[33]
  viability, T/C: 80.3%
[34]
  viability, T/C: 83.8%
[35]
  viability, T/C: 81.7%
[36]
  viability, T/C: 69.5%
